From ChEMBL document CHEMBL3044672, “N9- and N7-(Chloromethyl Phenymethyl)Chloropurine Derivatives from , '-Dichloroxylenes: Synthesis and Anticancer Activity” (2005)

Experiments:
Format in all cases: functional
HOP-92 = assay: Cytotoxicity against Homo sapiens (human) HOP92 cells after 48 hr by sulforhodamine B assay; conditions: HOP-92, 48 h
MDA-MB-435 = assay: Cytotoxicity against Homo sapiens (human) MDA-MB-435 cells after 48 hr by sulforhodamine B assay; conditions: MDA-MB-435, 48 h
786-0 = assay: Cytotoxicity against Homo sapiens (human) 786-0 cells after 48 hr by sulforhodamine B assay; conditions: 786-0, 48 h
COLO 205 = assay: Cytotoxicity against Homo sapiens (human) COLO205 cells after 48 hr by sulforhodamine B assay; conditions: COLO 205, 48 h
MCF7 = assay: Cytotoxicity against Homo sapiens (human) MCF7 cells after 48 hr by sulforhodamine B assay; conditions: MCF7, 48 h
MDA-MB-231 = assay: Cytotoxicity against Homo sapiens (human) MDA-MB-231 cells after 48 hr by sulforhodamine B assay; conditions: MDA-MB-231, 48 h
UO-31 = assay: Cytotoxicity against Homo sapiens (human) UO31 cells after 48 hr by sulforhodamine B assay; conditions: UO-31, 48 h
SF-268 [1] = assay: Cytotoxicity against Homo sapiens (human) SF268 cells assessed as cell growth at 10^-4 M after 48 hr by […] assay; conditions: SF-268, 48 h, read-out: Activity
NCI-H322M = assay: Cytotoxicity against Homo sapiens (human) NCI-H322M cells after 48 hr by sulforhodamine B assay
[2] = Cytotoxicity against Homo sapiens (human) NCI-ADR-RES cells after 48 hr by sulforhodamine B assay
CCRF-CEM = assay: Cytotoxicity against Homo sapiens (human) CCRF-CEM cells after 48 hr by sulforhodamine B assay
T47D = assay: Cytotoxicity against Homo sapiens (human) T47D cells after 48 hr by sulforhodamine B assay
SN12C = assay: Cytotoxicity against Homo sapiens (human) SN12C cells after 48 hr by sulforhodamine B assay
NCI-H522 = assay: Cytotoxicity against Homo sapiens (human) NCI-H522 cells after 48 hr by sulforhodamine B assay; conditions: NCI-H522, 48 h
SF-268 [3] = assay: Cytotoxicity against Homo sapiens (human) SF268 cells after 48 hr by sulforhodamine B assay; conditions: SF-268, 48 h
ACHN = assay: Cytotoxicity against Homo sapiens (human) ACHN cells after 48 hr by sulforhodamine B assay
Hs-578T = assay: Cytotoxicity against Homo sapiens (human) Hs 578T cells after 48 hr by sulforhodamine B assay
NCI-H460 [4] = assay: Cytotoxicity against Homo sapiens (human) NCI-H460 cells assessed as cell growth at 10^-4 M after 48 hr by Alamar blue assay; conditions: NCI-H460, 48 h, read-out: Activity
KM12 = assay: Cytotoxicity against Homo sapiens (human) KM12 cells after 48 hr by sulforhodamine B assay; conditions: KM12, 48 h
MOLT-4 = assay: Cytotoxicity against Homo sapiens (human) MOLT4 cells after 48 hr by sulforhodamine B assay; conditions: MOLT-4, 48 h
NCI-H460 [5] = assay: Cytotoxicity against Homo sapiens (human) NCI-H460 cells after 48 hr by sulforhodamine B assay; conditions: NCI-H460, 48 h
HOP-62 = assay: Cytotoxicity against Homo sapiens (human) HOP62 cells after 48 hr by sulforhodamine B assay; conditions: HOP-62, 48 h
U-251 = assay: Cytotoxicity against Homo sapiens (human) U251 cells after 48 hr by sulforhodamine B assay; conditions: U-251, 48 h
NCI-H23 = assay: Cytotoxicity against Homo sapiens (human) NCI-H23 cells after 48 hr by sulforhodamine B assay; conditions: NCI-H23, 48 h
HCT-15 = assay: Cytotoxicity against Homo sapiens (human) HCT15 cells after 48 hr by sulforhodamine B assay; conditions: HCT-15, 48 h
NCI-H226 = assay: Cytotoxicity against Homo sapiens (human) NCI-H226 cells after 48 hr by sulforhodamine B assay; conditions: NCI-H226, 48 h
SK-MEL-28 = assay: Cytotoxicity against Homo sapiens (human) SK-MEL-28 cells after 48 hr by sulforhodamine B assay; conditions: SK-MEL-28, 48 h
RXF 393 = assay: Cytotoxicity against Homo sapiens (human) RXF393 cells after 48 hr by sulforhodamine B assay; conditions: RXF 393, 48 h
PC-3 = assay: Cytotoxicity against Homo sapiens (human) PC3 cells after 48 hr by sulforhodamine B assay; conditions: PC-3, 48 h
UACC-62 = assay: Cytotoxicity against Homo sapiens (human) UACC62 cells after 48 hr by sulforhodamine B assay; conditions: UACC-62, 48 h
BT-549 = assay: Cytotoxicity against Homo sapiens (human) BT549 cells after 48 hr by sulforhodamine B assay; conditions: BT-549, 48 h
[6] = read-out: LC50 (the source's name)

ClCc1cccc(Cn2cnc3c(Cl)nc(Cl)nc32)c1
GI50 (HOP-92): 1.82 µM | TGI (HOP-92): 3.63 µM | CC50 (HOP-92; [6]): 7.08 µM | GI50 (MDA-MB-435): 1.69 µM | LC50 (MDA-MB-435): 6.31 µM | TGI (MDA-MB-435): 3.23 µM | GI50 (786-0): 12.3 µM | LC50 (786-0): 57.5 µM | TGI (786-0): 26.9 µM | GI50 (COLO 205): 2.23 µM | TGI (COLO 205): 5.37 µM | CC50 (COLO 205; [6]): > 100 µM | GI50 (MCF7): 2.04 µM | LC50 (concentration killing 50% of cells) (MCF7): > 100 µM | TGI (MCF7): 6.45 µM | GI50 (MDA-MB-231): 1.95 µM | LC50 (MDA-MB-231): 7.24 µM | TGI (MDA-MB-231): 3.71 µM | GI50 (UO-31): 1.58 µM | LC50 (concentration causing 50% net cell kill) (UO-31): 5.88 µM | TGI (UO-31): 3.09 µM | growth at 100 µM (SF-268 [1]): 0% | GI50 (NCI-H322M): 2.29 µM | TGI (NCI-H322M): 5.12 µM | CC50 (NCI-H322M; [6]): 15.8 µM | GI50 [2]: 2.39 µM | LC50 (concentration killing 50% of cells) [2]: > 100 µM | TGI [2]: 5.24 µM | GI50 (CCRF-CEM): 2.69 µM | TGI (CCRF-CEM): > 100 µM | CC50 (CCRF-CEM; [6]): > 100 µM | GI50 (T47D): 1.95 µM | LC50 (T47D): > 100 µM | TGI (T47D): 4.46 µM | GI50 (SN12C): 2.13 µM | LC50 (50% lethal concentration) (SN12C): 11.8 µM | TGI (SN12C): 4.67 µM | GI50 (NCI-H522): 2.69 µM | TGI (NCI-H522): 5.37 µM | CC50 (NCI-H522; [6]): 17 µM | GI50 (SF-268 [3]): 2.51 µM | TGI (SF-268 [3]): 6.6 µM | CC50 (SF-268 [3]; [6]): 70.8 µM | GI50 (ACHN): 1.9 µM | TGI (ACHN): 3.71 µM | CC50 (ACHN; [6]): 7.24 µM | GI50 (Hs-578T): 1.99 µM | TGI (Hs-578T): 4.36 µM | growth at 100 µM (NCI-H460 [4]): 0% | GI50 (KM12): 1.82 µM | TGI (KM12): 3.8 µM | CC50 (KM12; [6]): 7.94 µM | GI50 (MOLT-4): 3.38 µM | TGI (MOLT-4): > 100 µM | CC50 (MOLT-4; [6]): > 100 µM | GI50 (NCI-H460 [5]): 2.34 µM | TGI (NCI-H460 [5]): 6.31 µM | CC50 (NCI-H460 [5]; [6]): > 100 µM | GI50 (HOP-62): 2.29 µM | TGI (HOP-62): 4.36 µM | CC50 (HOP-62; [6]): 8.31 µM | GI50 (U-251): 1.69 µM | LC50 (concentration killing 50% of cells) (U-251): 5.62 µM | TGI (U-251): 3.09 µM | GI50 (NCI-H23): 2.13 µM | TGI (NCI-H23): 5.12 µM | CC50 (NCI-H23; [6]): 22.4 µM | GI50 (HCT-15): 2.39 µM | TGI (HCT-15): 6.91 µM | CC50 (HCT-15; [6]): > 100 µM | GI50 (NCI-H226): 3.23 µM | TGI (NCI-H226): 10 µM | CC50 (NCI-H226; [6]): 40.7 µM | GI50 (SK-MEL-28): 2.34 µM | LC50 (concentration killing 50% of cells) (SK-MEL-28): > 100 µM | TGI (SK-MEL-28): 5.37 µM | GI50 (RXF 393): 0.75 µM | TGI (RXF 393): 2.09 µM | CC50 (RXF 393; [6]): 5.12 µM | GI50 (PC-3): 2.39 µM | LC50 (concentration causing 50% cell kill) (PC-3): 55 µM | TGI (PC-3): 5.01 µM | GI50 (UACC-62): 1.86 µM | LC50 (concentration causing 50% net cell kill) (UACC-62): 6.45 µM | TGI (UACC-62): 3.46 µM | GI50 (BT-549): 1.69 µM | LC50 (50% lethal concentration) (BT-549): 6.16 µM | TGI (BT-549): 3.23 µM
